Reference: the supplement of paper PMC5908809

Columns and labels:
[1] = tested on: normal NK cells expanded with K562-aAPC; test: percent inhibition of viability; higher = more inhibition; conditions: 72 h, IL-2 2.5 ng/mL
Method: (§1)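 Drug sensitivity and resistance testing on K562-aAPC-expanded normal NK cells: 5 concentrations (10-fold steps over a 10,000-fold range), 72 h at 37 °C, viability by CellTiter-Glo normalised to DMSO and benzethonium chloride controls; DSS from the fitted curve.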

[2] = tested on: DERL-7 (IL-2 2.5 ng/mL); test: as above; conditions: 72 h
[3] = tested on: IMC-1 (IL-2 20 ng/mL); test: as above; conditions: 72 h
[4] = tested on: KAI3 (IL-2 2.5 ng/mL); test: as above; conditions: 72 h
[5] = tested on: KHYG-1 (IL-2 2.5 ng/mL); test: as above; conditions: 72 h
[6] = tested on: NK-92 (IL-2 2.5 ng/mL); test: as above; conditions: 72 h
[7] = tested on: NK-YS (IL-2 2.5 ng/mL); test: as above; conditions: 72 h
[8] = tested on: NKL (IL-2 2.5 ng/mL); test: as above; conditions: 72 h
[9] = tested on: SNK-6 (IL-2 2.5 ng/mL); test: as above; conditions: 72 h
[10] = tested on: YT (IL-2 2.5 ng/mL); test: as above; conditions: 72 h
[11] = tested on: normal primary NK cells, pool 1 (3 donors) (IL-2 2.5 ng/mL); test: as above; conditions: 72 h
[12] = tested on: normal primary NK cells, pool 1 (3 donors), resting (IL-2 0 ng/mL); test: as above; conditions: 72 h
[13] = tested on: normal primary NK cells, pool 2 (3 donors) (IL-2 2.5 ng/mL); test: as above; conditions: 72 h
[14] = tested on: normal primary NK cells, pool 3 (3 donors) (IL-2 2.5 ng/mL); test: as above; conditions: 72 h
[15] = tested on: normal NK cells expanded with K562-aAPC; test: drug sensitivity score (DSS) (DSS units); higher = more sensitive; extreme values may be limits of the assay; conditions: 72 h; IL-2 2.5 ng/mL
Method: as §1

[16] = tested on: DERL-7 (IL-2 2.5 ng/mL); test: as above; conditions: 72 h
[17] = tested on: IMC-1 (IL-2 20 ng/mL); test: as above; conditions: 72 h
[18] = tested on: KAI3 (IL-2 2.5 ng/mL); test: as above; conditions: 72 h
[19] = tested on: KHYG-1 (IL-2 2.5 ng/mL); test: as above; conditions: 72 h
[20] = tested on: NK-92 (IL-2 2.5 ng/mL); test: as above; conditions: 72 h
[21] = tested on: NK-YS (IL-2 2.5 ng/mL); test: as above; conditions: 72 h
[22] = tested on: NKL (IL-2 2.5 ng/mL); test: as above; conditions: 72 h
[23] = tested on: SNK-6 (IL-2 2.5 ng/mL); test: as above; conditions: 72 h
[24] = tested on: YT (IL-2 2.5 ng/mL); test: as above; conditions: 72 h
[25] = tested on: normal primary NK cells, pool 1 (3 donors) (IL-2 2.5 ng/mL); test: as above; conditions: 72 h
[26] = tested on: normal primary NK cells, pool 1 (3 donors), resting (IL-2 0 ng/mL); test: as above; conditions: 72 h
[27] = tested on: normal primary NK cells, pool 2 (3 donors) (IL-2 2.5 ng/mL); test: as above; conditions: 72 h
[28] = tested on: normal primary NK cells, pool 3 (3 donors) (IL-2 2.5 ng/mL); test: as above; conditions: 72 h

NC(=S)N/N=C/c1ncccc1N [Triapine] (max concentration tested 10000 nM)
percent inhibition of viability [%]
Conditions	1 nM	10 nM	100 nM	1000 nM	10000 nM
[1]	-2.67	-8.24	-2.71	55	64.6
[2]	-1.06	2.72	-5.08	-8.15	97.7
[3]	-5.06	0.28	-5.51	-12.1	98
[4]	-5.83	4.79	3.83	32.7	93.6
[5]	-1.53	-0.9	-1.65	73.7	97.9
[6]	-11.5	-5.21	-2.75	61.1	90.6
[7]	-1.66	-1.59	-1.57	26.8	95.1
[8]	-2.42	-1.96	-11.9	-7.16	92.3
[9]	4.11	13	14.7	-6.98	89.7
[10]	0.85	0.16	-3.39	-10	74.8
[11]	-6.36	-11	-8.82	4.76	57.7
[12]	-6.48	-20.7	-16.6	22.7	85.8
[13]	-9.87	-3.04	-3.45	8.38	40
[14]	-6.53	-8.38	-5.12	15.8	38.7

Conditions	drug sensitivity score
[15]	10.1
[16]	4.86
[17]	4.69
[18]	9.5
[19]	13.8
[20]	12.1
[21]	9.25
[22]	4.61
[23]	4.48
[24]	3.49
[25]	3.86
[26]	8.2
[27]	3.34
[28]	4.03

C=CCn1c(=O)c2cnc(Nc3ccc(N4CCN(C)CC4)cc3)nc2n1-c1cccc(C(C)(C)O)n1 [MK1775] (max concentration tested 10000 nM)
percent inhibition of viability [%]
Conditions	1 nM	10 nM	100 nM	1000 nM	10000 nM
[1]	-4.38	-1.43	28.4	50.9	65.7
[2]	0.66	0.03	17.1	97.5	92.2
[3]	-5.81	-5.29	-4.21	96.3	99
[4]	-0.83	7.57	45.7	91.1	90.4
[5]	-2.16	1.16	78.7	102	98.7
[6]	4.45	-1.85	53.5	98.9	97.4
[7]	-5.73	-7.13	10.9	92.7	94.9
[8]	-16	4.83	68.4	94.3	64.4
[9]	-5.66	-15.9	26.5	92.5	96.4
[10]	1.53	1.29	16.2	98.3	98.1
[11]	-14.7	-12.2	-5.81	9.3	42.5
[12]	-1.92	-3.22	7.91	4.91	-27.9
[13]	-15.1	-7.74	-2.34	4.19	34.3
[14]	-17.6	-4.31	-8.03	5.21	17.9

Conditions	drug sensitivity score
[15]	13
[16]	20.4
[17]	17.1
[18]	21.8
[19]	27.1
[20]	24.3
[21]	18.8
[22]	25.5
[23]	21
[24]	20.4
[25]	3.64
[26]	0
[27]	2.29
[28]	1.01

COc1cc([C@@H]2c3cc4c(cc3[C@@H](O[C@@H]3O[C@@H]5CO[C@@H](C)O[C@H]5[C@H](O)[C@H]3O)[C@H]3COC(=O)[C@H]23)OCO4)cc(OC)c1O [Etoposide] (max concentration tested 10000 nM)
percent inhibition of viability [%]
Conditions	1 nM	10 nM	100 nM	1000 nM	10000 nM
[1]	-5.25	-8.84	-1.72	49.7	65.7
[2]	-3.7	3.15	32.8	97	82.8
[3]	-6.15	1.75	34.8	97.9	99.5
[4]	5.94	13.2	41.3	76.4	78
[5]	-3.98	-9.64	3.44	87.1	101
[6]	-7.31	-6.78	5.02	67.3	101
[7]	3.6	4.01	29.1	77.3	83.9
[8]	-3.26	4.8	80.7	94.3	101
[9]	-11.1	0.92	-0.88	74.3	96.2
[10]	-3.45	-8.19	-5.67	44.7	98.2
[11]	-1.51	1.58	11.1	14.3	79.7
[12]	0.93	10	22.8	40	90.5
[13]	-2.19	-0.27	0.34	8.73	53.7
[14]	0.28	-3.78	10.1	11.7	48.3

Conditions	drug sensitivity score
[15]	9.42
[16]	21.9
[17]	22.2
[18]	19.3
[19]	16.2
[20]	13.7
[21]	17.7
[22]	28
[23]	13.8
[24]	11.1
[25]	6.78
[26]	11.3
[27]	4.34
[28]	4.07

CCCCCCCCc1ccc(CCC(N)(CO)CO)cc1 [Fingolimod] (max concentration tested 10000 nM)
percent inhibition of viability [%]
Conditions	1 nM	10 nM	100 nM	1000 nM	10000 nM
[1]	-2.7	-1.12	2.03	16.4	101
[2]	2.13	-1.97	5.25	14.2	100
[3]	1.04	3.67	4.21	10.1	101
[4]	-5.76	2.36	-1.55	21.5	101
[5]	-0.79	1.01	0.07	10.2	102
[6]	1.29	3.97	7.28	-5.13	103
[7]	-1.37	0.63	1.86	10.4	102
[8]	-3	6.8	9.6	30.1	101
[9]	2.86	25.2	18.7	13.7	101
[10]	1.77	4.72	1.22	8.33	101
[11]	-0.71	-3.03	-0.07	8.48	101
[12]	0.28	-1.75	-1.3	-3.49	100
[13]	-5.21	-6.36	4.8	16	101
[14]	-17.7	-6.84	5.41	-5.02	100

Conditions	drug sensitivity score
[15]	8.27
[16]	7.91
[17]	7.23
[18]	8.95
[19]	7.28
[20]	5.44
[21]	7.3
[22]	9.92
[23]	7.85
[24]	6.91
[25]	6.91
[26]	5.33
[27]	8.2
[28]	5.22
